Data reported in patent US20250268877A1 (BIOGEN MA INC., priority 2020, published 2025).
Values after ≈ are worked out from the molar mass of the structure shown.

Assays:
[1] = biological target: MDR1 (Homo sapiens (Human), UniProt P08183); assay: MDR1-MDCK assay (apparent permeability, efflux ratio); assay type: in vitro ADME; conditions: human, MDCK-MDR1, 1 μM, read-out: MDR1-MDCK_Efflux Ratio
[2] = Kinetic solubility assay (CLND), potassium phosphate buffer pH 6.8; assay type: physicochemical; conditions: potassium phosphate buffer, pH 6.8, aqueous buffer, kinetic from dmso stock, pH 6.8, 2% DMSO, 24 hours at ambient temperature
[3] = Kpuu assay (in vivo brain-to-plasma partition, unbound); conditions: intravenous infusion 4 to 24 h, unbound drug partition coefficient; for Kp: brain (unbound) versus plasma (unbound), read-out: Brain Kpu,u
[4] = biological target: IRAK4 (Homo sapiens (Human), UniProt Q9NWZ3); assay: IRAK4 2-hour 1 mM ATP Biochemical Assay (MesoScale Detection format); conditions: 100 pM IRAK4, read-out: IRAK4 IC50
Chain of IRAK4 (Q9NWZ3 whole entry): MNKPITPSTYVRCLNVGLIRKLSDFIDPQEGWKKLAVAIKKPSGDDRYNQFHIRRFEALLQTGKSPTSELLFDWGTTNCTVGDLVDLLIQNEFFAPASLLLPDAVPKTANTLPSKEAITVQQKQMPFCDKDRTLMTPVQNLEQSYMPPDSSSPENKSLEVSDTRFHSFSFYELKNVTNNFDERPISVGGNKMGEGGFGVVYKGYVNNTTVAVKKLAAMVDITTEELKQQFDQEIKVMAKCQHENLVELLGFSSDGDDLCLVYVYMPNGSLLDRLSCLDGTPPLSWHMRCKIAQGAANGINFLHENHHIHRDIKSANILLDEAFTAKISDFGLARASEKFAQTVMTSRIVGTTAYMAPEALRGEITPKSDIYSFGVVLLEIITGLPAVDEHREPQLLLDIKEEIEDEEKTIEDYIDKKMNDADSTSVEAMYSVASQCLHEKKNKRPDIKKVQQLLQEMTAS

Chain of MDR1 (P08183 whole entry): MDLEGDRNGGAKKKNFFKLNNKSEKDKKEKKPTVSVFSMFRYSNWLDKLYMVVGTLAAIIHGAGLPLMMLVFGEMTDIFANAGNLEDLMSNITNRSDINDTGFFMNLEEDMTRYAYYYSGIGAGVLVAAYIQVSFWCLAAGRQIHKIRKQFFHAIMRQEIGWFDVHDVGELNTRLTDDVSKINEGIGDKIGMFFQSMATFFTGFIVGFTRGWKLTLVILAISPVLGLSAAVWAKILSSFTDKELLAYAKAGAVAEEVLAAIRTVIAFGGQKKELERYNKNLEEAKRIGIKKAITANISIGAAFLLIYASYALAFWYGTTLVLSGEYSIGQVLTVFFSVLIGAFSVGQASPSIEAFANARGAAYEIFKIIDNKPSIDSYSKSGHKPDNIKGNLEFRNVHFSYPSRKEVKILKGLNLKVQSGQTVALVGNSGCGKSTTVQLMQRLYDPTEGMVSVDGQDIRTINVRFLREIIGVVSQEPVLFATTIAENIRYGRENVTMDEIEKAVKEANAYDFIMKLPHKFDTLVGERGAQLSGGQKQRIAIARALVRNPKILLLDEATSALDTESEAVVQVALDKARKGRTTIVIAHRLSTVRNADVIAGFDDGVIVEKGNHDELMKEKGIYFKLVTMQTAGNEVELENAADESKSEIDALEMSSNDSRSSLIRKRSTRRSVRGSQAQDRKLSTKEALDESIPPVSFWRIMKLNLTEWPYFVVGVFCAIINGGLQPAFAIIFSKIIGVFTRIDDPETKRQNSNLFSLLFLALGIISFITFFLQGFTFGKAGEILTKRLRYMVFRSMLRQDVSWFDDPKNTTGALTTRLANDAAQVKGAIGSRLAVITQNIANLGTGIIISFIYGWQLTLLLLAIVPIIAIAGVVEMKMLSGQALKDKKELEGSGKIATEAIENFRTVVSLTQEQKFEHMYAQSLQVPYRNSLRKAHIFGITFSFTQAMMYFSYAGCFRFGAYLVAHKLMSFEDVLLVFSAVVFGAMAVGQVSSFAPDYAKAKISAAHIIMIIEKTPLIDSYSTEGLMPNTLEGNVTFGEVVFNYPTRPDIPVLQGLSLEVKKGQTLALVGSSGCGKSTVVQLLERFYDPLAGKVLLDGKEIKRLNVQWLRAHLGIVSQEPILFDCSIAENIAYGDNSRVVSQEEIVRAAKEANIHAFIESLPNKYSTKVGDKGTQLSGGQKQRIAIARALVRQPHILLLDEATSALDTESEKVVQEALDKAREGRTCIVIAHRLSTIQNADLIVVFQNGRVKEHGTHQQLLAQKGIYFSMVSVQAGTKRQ

efflux ratio at 120 min, 1 μM [1]	solubility at 24 h [2]	Kp [3]	IC50 [4]	Brain Kpu,u [3]	Structure (SMILES)
3.8	24.9 µg/mL (≈ 53.3 µM)	0.7			CC(C)Oc1nc2nn(C34COC(C)(C3)C4)cc2cc1C(=O)Nc1cccn([C@H]2C[C@H]2F)c1=O (single isomer, unassigned) [Example 34]
1.32	19.9 µg/mL (≈ 41.9 µM)		0.4 nM	0.8	C[C@@]12CC[C@@](n3cc4cc(C(=O)Nc5cccn(C6CC6)c5=O)c(OC5CCC5)cc4n3)(CO1)C2 (single isomer, unassigned) [Example 40]
1.59	55.4 µg/mL (≈ 115 µM)	1.3	0.5 nM		CC(C)Oc1cc2nn([C@@]34CC[C@@](C)(C3)OC4)cc2cc1C(=O)Nc1cccn([C@@H]2C[C@H]2F)c1=O (single isomer, unassigned) [Example 59]
1.74	8.2 µg/mL (≈ 17.1 µM)	0.7	0.5 nM		CC(C)Oc1cc2nn(C34COC(CF)(C3)C4)cc2cc1C(=O)Nc1cccn([C@@H]2C[C@H]2C)c1=O (single isomer, unassigned) [Example 69]
9.11	59.3 µg/mL (≈ 127 µM)	0.2	0.2 nM		O=C(Nc1cccn([C@H]2C[C@H]2F)c1=O)c1cc2cn([C@]34CC[C@H](C3)OC4)nc2nc1OC1CC1 (single isomer, unassigned) [Example 88]
6.36	43 µg/mL (≈ 98.2 µM)	0.4	0.4 nM		CC(C)Oc1nc2nn(C[C@@H]3CCOC3)cc2cc1C(=O)Nc1cccn(C2CC2)c1=O [Example 4, (S)—N-(1-cyclopropyl-2-oxo-1,2-dihydropyridin-3-yl)-6-isopropoxy-2-((tetrahydrofuran-3-yl)methyl)-2H-pyrazolo[3,4-b]pyridine-5-carboxamide]
4.88	45.6 µg/mL (≈ 104 µM)	0.8	0.2 nM		CC(C)Oc1nc2nn(C[C@H]3CCOC3)cc2cc1C(=O)Nc1cccn(C2CC2)c1=O [Example 5, (R)—N-(1-cyclopropyl-2-oxo-1,2-dihydropyridin-3-yl)-6-isopropoxy-2-((tetrahydrofuran-3-yl)methyl)-2H-pyrazolo[3,4-b]pyridine-5-carboxamide]
4.8	36 µg/mL (≈ 75.1 µM)	0.9	0.2 nM		COCC12CC(n3cc4cc(C(=O)Nc5cccn(C6CC6)c5=O)c(OC(C)C)nc4n3)(CO1)C2 [Example 11, N-(1-cyclopropyl-2-oxo-1,2-dihydropyridin-3-yl)-6-isopropoxy-2-(1-(methoxymethyl)-2-oxabicyclo[2.1.1]hexan-4-yl)-2H-pyrazolo[3,4-b]pyridine-5-carboxamide]
2.82	67.7 µg/mL (≈ 141 µM)	0.7	0.5 nM		COCC12CC(n3cc4cc(C(=O)Nc5cccn(C6CC6)c5=O)c(OC(C)C)cc4n3)(CO1)C2 [Example 12, N-(1-cyclopropyl-2-oxo-1,2-dihydropyridin-3-yl)-6-isopropoxy-2-(1-(methoxymethyl)-2-oxabicyclo[2.1.1]hexan-4-yl)-2H-indazole-5-carboxamide]
2.6	50.4 µg/mL (≈ 115 µM)	0.5	0.2 nM		CC(C)Oc1nc2nn([C@@H]3CCCOC3)cc2cc1C(=O)Nc1cccn(C2CC2)c1=O [Example 17, (R)—N-(1-cyclopropyl-2-oxo-1,2-dihydropyridin-3-yl)-6-isopropoxy-2-(tetrahydro-2H-pyran-3-yl)-2H-pyrazolo[3,4-b]pyridine-5-carboxamide]
2.79	74.2 µg/mL (≈ 150 µM)		0.2 nM		COCC12CCC(n3cc4cc(C(=O)Nc5cccn(C6CC6)c5=O)c(OC(C)C)nc4n3)(CO1)C2 (stereo not drawn) [Example 29, N-(1-cyclopropyl-2-oxo-1,2-dihydropyridin-3-yl)-6-isopropoxy-2-(1-(methoxymethyl)-2-oxabicyclo[2.2.1]heptan-4-yl)-2H-pyrazolo[3,4-b]pyridine-5-carboxamide]
2.58		0.6	0.2 nM		COC[C@@]12CC[C@@](n3cc4cc(C(=O)Nc5cccn(C6CC6)c5=O)c(OC(C)C)nc4n3)(CO1)C2 [Example 30, N-(1-cyclopropyl-2-oxo-1,2-dihydropyridin-3-yl)-6-isopropoxy-2-((1S,4S)-1-(methoxymethyl)-2-oxabicyclo[2.2.1]heptan-4-yl)-2H-pyrazolo[3,4-b]pyridine-5-carboxamide]
2.5	61.8 µg/mL (≈ 125 µM)		0.2 nM		COC[C@]12CC[C@](n3cc4cc(C(=O)Nc5cccn(C6CC6)c5=O)c(OC(C)C)nc4n3)(CO1)C2 [Example 31, N-(1-cyclopropyl-2-oxo-1,2-dihydropyridin-3-yl)-6-isopropoxy-2-((1R,4R)-1-(methoxymethyl)-2-oxabicyclo[2.2.1]heptan-4-yl)-2H-pyrazolo[3,4-b]pyridine-5-carboxamide]
0.73	1.2 µg/mL (≈ 2.67 µM)		1.3 nM		CC(C)Oc1cc2nn(C34COC(C)(C3)C4)cc2cc1C(=O)Nc1ccnn(C2CC2)c1=O [Example 45, N-(2-cyclopropyl-3-oxo-2,3-dihydropyridazin-4-yl)-6-isopropoxy-2-(1-methyl-2-oxabicyclo[2.1.1]hexan-4-yl)-2H-indazole-5-carboxamide]
0.88	0.2 µg/mL (≈ 0.444 µM)		0.4 nM		CC(C)Oc1nc2nn(C34COC(C)(C3)C4)cc2cc1C(=O)Nc1ccnn(C2CC2)c1=O [Example 46, N-(2-cyclopropyl-3-oxo-2,3-dihydropyridazin-4-yl)-6-isopropoxy-2-(1-methyl-2-oxabicyclo[2.1.1]hexan-4-yl)-2H-pyrazolo[3,4-b]pyridine-5-carboxamide]
5.31	34 µg/mL (≈ 68.5 µM)		0.4 nM		COCC12CC(n3cc4cc(C(=O)Nc5cccn([C@H]6C[C@H]6F)c5=O)c(OC(C)C)cc4n3)(CO1)C2 [Example 67, N-(1-((1S,2R)-2-fluorocyclopropyl)-2-oxo-1,2-dihydropyridin-3-yl)-6-isopropoxy-2-(1-(methoxymethyl)-2-oxabicyclo[2.1.1]hexan-4-yl)-2H-indazole-5-carboxamide]
2.05	36.1 µg/mL (≈ 73.3 µM)		0.7 nM		COCC12CC(n3cc4cc(C(=O)Nc5cccn([C@H]6C[C@H]6C)c5=O)c(OC(C)C)cc4n3)(CO1)C2 [Example 78, 6-isopropoxy-2-(1-(methoxymethyl)-2-oxabicyclo[2.1.1]hexan-4-yl)-N-(1-((1S,2R)-2-methylcyclopropyl)-2-oxo-1,2-dihydropyridin-3-yl)-2H-indazole-5-carboxamide]
2.56	55.8 µg/mL (≈ 124 µM)		0.8 nM		CC(C)Oc1cc2nn(C34COC(C3)C4)cc2cc1C(=O)Nc1cccn([C@H]2C[C@H]2C)c1=O [Example 79, 2-(2-oxabicyclo[2.1.1]hexan-4-yl)-6-isopropoxy-N-(1-((1S,2R)-2-methylcyclopropyl)-2-oxo-1,2-dihydropyridin-3-yl)-2H-indazole-5-carboxamide]
2.17	33.8 µg/mL (≈ 70.3 µM)		0.7 nM		CC(C)Oc1cc2nn(C34COC(CF)(C3)C4)cc2cc1C(=O)Nc1cccn([C@H]2C[C@H]2C)c1=O [Example 82, 2-(1-(fluoromethyl)-2-oxabicyclo[2.1.1]hexan-4-yl)-6-isopropoxy-N-(1-((1S,2R)-2-methylcyclopropyl)-2-oxo-1,2-dihydropyridin-3-yl)-2H-indazole-5-carboxamide]
2.28	38.1 µg/mL (≈ 82.6 µM)		0.9 nM		C[C@@H]1C[C@@H]1n1cccc(NC(=O)c2cc3cn(C45COC(C)(C4)C5)nc3nc2OC2CC2)c1=O [Example 89, 6-cyclopropoxy-2-(1-methyl-2-oxabicyclo[2.1.1]hexan-4-yl)-N-(1-((1S,2R)-2-methylcyclopropyl)-2-oxo-1,2-dihydropyridin-3-yl)-2H-pyrazolo[3,4-b]pyridine-5-carboxamide]
5.39	65.2 µg/mL (≈ 133 µM)		1.1 nM		COCC12CC(n3cc4cc(C(=O)Nc5cccn([C@H]6C[C@H]6C)c5=O)c(OC5CC5)nc4n3)(CO1)C2 [Example 90]
5.09	46.7 µg/mL (≈ 104 µM)		1.1 nM		C[C@@H]1C[C@@H]1n1cccc(NC(=O)c2cc3cn(C45COC(C4)C5)nc3nc2OC2CC2)c1=O [Example 91, 2-(2-oxabicyclo[2.1.1]hexan-4-yl)-6-cyclopropoxy-N-(1-((1S,2R)-2-methylcycloproyl)-2-oxo-1,2-dihydropyridin-3-yl)-2H-pyrazolo[3,4-b]pyridine-5-carboxamide]

Structure (SMILES)	efflux ratio at 120 min, 1 μM [1]	solubility at 24 h [2]	Kp [3]	IC50 [4]	Brain Kpu,u [3]
CC[C@H](C)Oc1nc2nn(C34COC(C)(C3)C4)cc2cc1C(=O)Nc1cccn(C2CC2)c1=O [Example 15, (S)-6-(sec-butoxy)-N-(1-cyclopropyl-2-oxo-1,2-dihydropyridin-3-yl)-2-(1-methyl-2-oxabicyclo[2.1.1]hexan-4-yl)-2H-pyrazolo[3,4-b]pyridine-5-carboxamide]	1.4		0.9	0.5 nM	
C[C@@H]1C[C@@H]1n1cccc(NC(=O)c2cc3cn(C45COC(C)(C4)C5)nc3nc2OC2CCC2)c1=O [Example 95, 6-cyclobutoxy-2-(1-methyl-2-oxabicyclo[2.1.1]hexan-4-yl)-N-(1-((1S,2R)-2-methylcyclopropyl)-2-oxo-1,2-dihydropyridin-3-yl)-2H-pyrazolo[3,4-b]pyridine-5-carboxamide]	1.09	48.3 µg/mL (≈ 102 µM)		0.8 nM	
